Assay results from ChEMBL document CHEMBL1155353, “Isatin derivatives, a novel class of transthyretin fibrillogenesis inhibitors” (Bioorg Med Chem Lett, 2009).
The source made the active and inactive calls. The calls are words filed in the database; no cut-off is given here.

Key:
Transthyretin [1] = molecular target: T1, Transthyretin (Homo sapiens, UniProt P02766); experiment: Displacement of [125I]thyroxin from TTR
Transthyretin [2] = molecular target: T1, Transthyretin; experiment: Inhibition of TTR mediated fibrillogenesis assessed as acid-induced protein aggregation turbidity after 1.5 hrs by turbidimetric assay
Transthyretin [3] = molecular target: T1, Transthyretin; experiment: Inhibition of TTR mediated fibrillogenesis assessed as acid-induced protein aggregation turbidity after 1.5 hrs by turbidimetric assay relative to control; set-up: concentration or dose not given beside the values
Transthyretin [4] = molecular target: T1, Transthyretin; experiment: Binding affinity to TTR at 40 uM by isothermal titration calorimetry
Transthyretin [5] = molecular target: T1, Transthyretin; experiment: Inhibition of TTR mediated fibrillogenesis assessed as acid-induced protein aggregation turbidity at […] after 1.5 hrs by turbidimetric assay relative to control; set-up: scale not given: the % may be the effect or the level left

Row | SMILES | Activity (Transthyretin [1]) | IC50 (Transthyretin [2]) | Activity (Transthyretin [3]) | Activity (Transthyretin [4]) | Activity (Transthyretin [5])
1 | O=C1Nc2ccccc2/C1=N/c1ccc(I)cc1 | inactive | > 50 µM | 0% | – | –
2 | Cc1ccc(/N=C2\C(=O)N(C)c3ccccc32)cc1 | inactive | 6.3 µM | 8.6% | – | –
3 | COc1ccc(/N=C2\C(=O)N(C)c3ccccc32)cc1 | inactive | 7.7 µM | 81% | – | –
4 | CN1C(=O)/C(=N\c2ccc([N+](=O)[O-])cc2)c2ccccc21 | inactive | 6.3 µM | 86% | – | –
5 | COc1ccc(/N=C2\C(=O)Nc3ccc([N+](=O)[O-])cc32)cc1 | inactive | > 50 µM | 24% | – | –
6 | Oc1c(I)cc(I)cc1I [TRIIODOPHENOL] | inactive | 3.2 µM | 80% | – | –
7 | COc1ccc(/N=C2\C(=O)Nc3ccc(C)cc32)cc1 | inactive | > 50 µM | 32% | – | –
8 | O=C1Nc2ccc(I)cc2/C1=N/c1ccc(I)cc1 | inactive | > 50 µM | 23% | – | –
9 | CN1C(=O)/C(=N\c2ccc(I)cc2)c2ccccc21 | inactive | > 50 µM | 0% | – | –
10 | CN1C(=O)C(=O)c2ccccc21 | inactive | 6.3 µM | 100% | – | –
11 | COc1ccc(/N=C2\C(=O)Nc3ccccc32)cc1 | inactive | – | 100% | – | –
12 | O=C1Nc2ccc(Br)cc2/C1=N/c1ccc(I)cc1 | inactive | > 50 µM | 16% | – | –
13 | O=C1Nc2ccc(I)cc2/C1=N/c1ccccc1 | inactive | > 50 µM | 1% | – | –
14 | COc1ccc(/N=C2\C(=O)Nc3ccc(I)cc32)cc1 | inactive | > 50 µM | 42% | – | –
15 | O=C1Nc2ccccc2/C1=N/c1ccc([N+](=O)[O-])cc1 | inactive | 2.8 µM | 90% | inactive | –
16 | Cc1ccc2c(c1)/C(=N/c1ccc(I)cc1)C(=O)N2 | inactive | > 50 µM | inactive | – | 7%
17 | Cc1ccc(/N=C2\C(=O)Nc3ccccc32)cc1 | inactive | > 50 µM | – | – | 14%
18 | COc1ccc(/N=C2/C(=O)Nc3ccccc32)cc1 | – | 8.1 µM | – | – | –
19 | CN1C(=O)/C(=N\c2ccccc2)c2ccccc21 | inactive | 11 µM | 77% | – | –
20 | COc1ccc(/N=C2\C(=O)Nc3ccc(Br)cc32)cc1 | inactive | > 50 µM | 48% | – | –
21 | O=C1Nc2ccc([N+](=O)[O-])cc2/C1=N/c1ccc(I)cc1 | inactive | > 50 µM | 7% | – | 7%
22 | N[C@@H](Cc1cc(I)c(Oc2cc(I)c(O)c(I)c2)c(I)c1)C(=O)O | inactive | – | 95% | – | –
23 | O=C1Nc2ccccc2C1=O [ISATIN] | inactive | > 50 µM | – | – | 24%
